Measured values as given in patent US5885998A (priority 1998, dated 1999).

Columns and labels:
[1] = test system: synaptosomes from the striatal area of rat brain (dopamine release); assay: Dopamine release from striatal synaptosomes; type: cell-based, rat (Sprague-Dawley)
Protocol: Dopamine release was measured by preparing synaptosomes from the striatal area of rat brain obtained from Sprague-Dawley rats generally according to the procedures set forth by Nagy et al., J. Neurochem., Vol. 43, pp. 1114-1123 (1984). Striata from 4 rats were homogenized in 2 ml of 0.32M sucrose buffered with 5 mM HEPES (pH 7.5), using a glass-Teflon tissue grinder. The homogenate was diluted to 5 ml with additional homogenization solution and centrifuged at 1,000×g for 10 min. This procedure was repeated on the new pellet and the resulting supernatant was centrifuged at 12,000×g for 20 min. A 3 layer discontinuous Percoll gradient consisting of 16 percent, 10 percent and 7.5 percent Percoll in HEPES-buffered sucrose was made with the final pellet dispersed in the top layer. […] Using this method, 30 to 90 percent of the dopamine was taken up into the synaptosomes, as determined by scintillation counting following filtration through glass fiber filters soaked with 0.5 percent polyethyleneimine. […] After the addition of 0.2 ml of a solution containing various concentrations of ligand, the perfusate was collected into scintillation vials at 1 min. intervals and the dopamine released was quantified by scintillation counting. Peaks of radioactivity released above background were summed and the average basal release during that time was subtracted from the total.

[2] = literature report; cited from earlier work
[3] = literature report; cited from earlier work; remark: listed apart in the source

CNCC/C=C\c1cccnc1 [Sample No. 5, (Z)-metanicotine]
Dopamine Release Emax ([1]; release as percentage of release obtained with an equal concentration of (S)-(-)-nicotine): 88 % nicotine

CNCC/C=C/c1cccnc1 [Sample No. 8, (E)-metanicotine]
Emax ([1]; Rattus norvegicus): 80%

CN1CCC[C@H]1c1cccnc1 [Sample No. C-1, (S)-(-)-nicotine]
effect towards the treatment of various CNS disorders [2]: positive effect towards the treatment of various CNS disorders

CN1CCCC1c1cccnc1 (stereo not shown) [nicotine]
potentiation of certain pharmaceutical compositions used for treatment of certain CNS disorders [3]: potentiates the pharmacological behavior of certain pharmaceutical compositions
